The values that follow are results of earlier work, collected in patent publication US12394502B2, “Method for predicting HLA-binding peptides using protein structural features” (The General Hospital Corporation, priority 2019, dated 2025).

The conditions of data set [1]: more than 25 clinical trials.
For data set [2], the system named is ovarian carcinoma patients.
In data set [3] the test system is advanced hormone refractory prostate cancer patients. The settings on record: personalized vaccination alone or combined with a low dose of estramustine.
Data set [4] concerns Stage IV Melanoma Patients. Conditions: temozolomide combined with peptide vaccination.

As to “Polyinosinic-Polycytidylic Acid-poly-L-lysine Carboxymethylcellulose [poly-ICLC]”, the toxicity profile entry in data set [1] is “relatively benign toxicity profile”. Besides, the safety result in the data set on healthy human volunteers (human volunteer study) is “safe”. Also, in the data set on healthy human volunteers (one single s.c. administration, 8 subjects versus 4 placebo, whole blood), the “differential expression of genes versus placebo” value is reported as “up to 212 genes”. In data set [2] (1.4 mg poly-ICLC and Montanide added to OLP, compared to OLP alone or OLP and Montanide, subcutaneous), the “generation of NY-ESO-1-specific CD4+ and CD8+ T cell and antibody responses” value was “markedly enhanced”. In data set [2] (poly-ICLC in combination with NY-ESO-1 peptide vaccine (in addition to Montanide)), the “patients showing induction of CD4+ and CD8+ T cell, as well as antibody responses to the peptide” value was above 90%.

As to `C[C@]12CC[C@@H]3c4ccc(OC(=O)N(CCCl)CCCl)cc4CC[C@H]3[C@@H]1CC[C@@H]2O` [estramustine], the “patients with >50% decrease in serum prostate specific antigen (PSA)” value in data set [3] was 54%.

For `Cn1nnc2c(C(N)=O)ncn2c1=O` [temozolomide], in data set [4], the toxicity result was “low toxicity”.
